US20060069132A1, “Azolecarboxamide herbicides” (priority 2004, published 2006)

Tests used:
yellow nutsedge = assay: Test C pre-/postemergence herbicide test; format: in vivo, Cyperus esculentus
From the text: (§1) Seeds of plant species selected from bermudagrass (Cynodon dactylon (L.) Pers.), Surinam grass (Urochloa decumbens (Staph) R. D. Webster, previously named Brachiaria decumbens Stapf), cocklebur (Xanthium strumarium L.), corn (Zea mays L.), large crabgrass (Digitaria sanguinalis (L.) Scop.), woolly cupgrass (Eriochloa villosa (Thunb.) Kunth), giant foxtail (Setaria faberi Herrm.), goosegrass (Eleusine indica (L.) Gaertn.), johnsongrass (Sorghum halepense (L.) Pers.), kochia (Kochia scoparia (L.) Schrad.), lambsquarters (Chenopodium album L.), morningglory (Ipomoea coccinea L.), eastern black nightshade (Solanum ptycanthum Dunal), yellow nutsedge (Cyperus esculentus L.), pigweed (Amaranthus retroflexus L.), common ragweed (Ambrosia elatior L.), soybean (Glycine max (L.) Merr.), common (oilseed) sunflower (Helianthus annuus L.) and velvetleaf (Abutilon theophrasti Medik.) were planted and treated preemergence with test chemicals formulated in a non-phytotoxic solvent mixture which included a surfactant.
(§2) At the same time, plants selected from these crop and weed species and also winter barley (Hordeum vulgare L.), blackgrass (Alopecurus myosuroides Huds.), canarygrass (Phalaris minor Retz.), chickweed (Stellaria media (L.) Vill.), downy bromegrass (Bromus tectorum L.), green foxtail (Setaria viridis (L.) Beauv.), Italian ryegrass (Lolium multiflorum Lam.), wheat (Triticum aestivum L.), wild oat (Avenafatua L.) and windgrass (Apera spica-venti (L.) Beauv.) were treated with postemergence applications of some of the test chemicals formulated in the same manner. Plants ranged in height from 2 to 18 cm (1- to 4-leaf stage) for postemergence treatments. Plant species in the flooded paddy test consisted of rice (Oryza sativa), smallflower umbrella sedge (Cyperus difformis L.), ducksalad (Heteranthera limosa (Sw.) Willd.) and barnyardgrass (Echinochloa crus-galli (L.) Beauv.) grown to the 2-leaf stage for testing. Treated plants and controls were maintained in a greenhouse for 12 to 14 days, after which time all species were compared to controls and visually evaluated. Plant response ratings, summarized in Table C, are based on a scale of 0 to 100 where 0 is no effect and 100 is complete control. A dash (-) response means no test result.

pigweed = assay: Test C pre-/postemergence herbicide test; format: in vivo, Amaranthus retroflexus
How it was run: (§3)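 Seeds were planted and sprayed preemergence with test chemicals in a non-phytotoxic solvent mixture containing surfactant; postemergence treatments went onto plants 2 to 18 cm tall (1- to 4-leaf stage). After 12 to 14 days in a greenhouse, injury was rated visually against untreated controls on a 0–100 scale.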

Surinam grass = assay: Test C pre-/postemergence herbicide test; format: in vivo, Urochloa decumbens
From the text: as §1, §2

corn = assay: Test C pre-/postemergence herbicide test; format: in vivo, Zea mays
From the text: as §1, §2

woolly cupgrass = assay: Test C pre-/postemergence herbicide test; format: in vivo, Eriochloa villosa
How it was run: as §3

kochia = assay: Test C pre-/postemergence herbicide test; format: in vivo, Kochia scoparia
How it was run: as §3

lambsquarters = assay: Test C pre-/postemergence herbicide test; format: in vivo, Chenopodium album
How it was run: as §3

soybean = assay: Test C pre-/postemergence herbicide test; format: in vivo, Glycine max; settings: for Soybean plant response rating: 500 g ai/ha
From the text: as §1, §2

morningglory = assay: Test C pre-/postemergence herbicide test; format: in vivo, Ipomoea coccinea; parameters: key to Plant response rating, Morningglory: 0 = no effect, 100 = complete control; settings: for Morningglory plant response rating: 500 g ai/ha
From the text: as §1, §2

goosegrass = assay: Test C pre-/postemergence herbicide test; format: in vivo, Eleusine indica
How it was run: as §3

[1] = test system: smallflower umbrella sedge; assay: Test C flooded paddy test; format: in vivo, Cyperus difformis
barnyardgrass = assay: Test C flooded paddy test; format: in vivo, Echinochloa crus-galli
How it was run: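 Postemergence sprays applied to plants 2 to 18 cm tall (1- to 4-leaf stage); paddy species grown to 2-leaf stage under flooding. After 12 to 14 days in greenhouse, visual rating versus untreated controls on 0–100 scale (0 no effect, 100 complete control).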

[2] = 125 g ai/ha, scale 0 (no effect) to 100 (complete control), visual, 12 to 14 days, preemergence
[3] = 250 g ai/ha, scale 0 to 100 (0 no effect, 100 complete control), visual, 12 to 14 days, preemergence
[4] = Preemergence, 500 g ai/ha, scale 0 to 100, 0 no effect, 100 complete control
[5] = Postemergence, 500 g ai/ha, scale 0 to 100
[6] = Postemergence, 250 g ai/ha, scale 0 to 100, 0 no effect, 100 complete control
[7] = postemergence, 62 g ai/ha, scale 0 to 100
[8] = Postemergence, 125 g ai/ha, scale 0 to 100, 0 no effect, 100 complete control
[9] = Preemergence, scale 0 to 100, 0 no effect, 100 complete control
[10] = 125 g ai/ha, scale 0 to 100 (0 no effect, 100 complete control)
[11] = 250 g ai/ha, scale of 0 to 100, 0 is no effect, 100 is complete control
[12] = 500 g ai/ha, visual rating after 12 to 14 days, scale 0 to 100 (0 no effect, 100 complete control)
[13] = 250 g ai/ha, scale 0-100, preemergence
[14] = 62 g ai/ha, preemergence, scale 0 to 100
[15] = 500 g ai/ha, scale 0 to 100 (0 no effect, 100 complete control), visual, 12 to 14 days, preemergence

C#CCn1nc(C(C)(C)C)cc1C(=O)Nc1cccc(C(=O)NCC)c1 [Compound 50]
Plant response rating (0 = no effect, 100 = complete control), Nutsedge, Yellow (yellow nutsedge; 62 g ai/ha, preemergence): 0 | Plant response rating, Nutsedge, Yellow (yellow nutsedge; [2]): 10 | Plant response rating, Nutsedge, Yellow (yellow nutsedge; [3]): 40 | Nutsedge, Yellow plant response rating (yellow nutsedge; [4]): 80 | Plant response rating (0 = no effect, 100 = complete control), Pigweed (pigweed; 62 g ai/ha, preemergence): 90 | Plant response rating, Pigweed (pigweed; [2]): 90 | Plant response rating, Pigweed (pigweed; [3]): 95 | Pigweed plant response rating (pigweed; [5]): 100 | Plant response rating, Pigweed (pigweed; [6]): 100 | Pigweed plant response rating (pigweed; [4]): 95 | Plant response rating, Pigweed (pigweed; [7]): 50 | Plant response rating (0 = no effect, 100 = complete control), Surinam Grass (Surinam grass; 62 g ai/ha, preemergence): 0 | Plant response rating, Surinam Grass (Surinam grass; [2]): 10 | Plant response rating, Surinam Grass (Surinam grass; [3]): 80 | Plant response rating, Surinam Grass (Surinam grass; [6]): 50 | Surinam Grass plant response rating (Surinam grass; [4]): 85 | Plant response rating, Surinam Grass (Surinam grass; [7]): 10 | Plant response rating (0 = no effect, 100 = complete control), Corn (corn; 62 g ai/ha, preemergence): 0 | Plant response rating, Corn (corn; [2]): 0 | Plant response rating, Corn (corn; [3]): 0 | Corn plant response rating (corn; [5]): 85 | Plant response rating, Corn (corn; [8]): 80 | Plant response rating, Corn (corn; [6]): 85 | Corn plant response rating (corn; [4]): 10 | Plant response rating, Corn (corn; [7]): 20 | Plant response rating (0 = no effect, 100 = complete control), Cupgrass, Woolly (woolly cupgrass; 62 g ai/ha, preemergence): 0 | Plant response rating, Cupgrass, Woolly (woolly cupgrass; [2]): 10 | Plant response rating, Cupgrass, Woolly (woolly cupgrass; [3]): 30 | Cupgrass, Woolly plant response rating (woolly cupgrass; [5]): 0 | Plant response rating, Cupgrass, Woolly (woolly cupgrass; [8]): 0 | Plant response rating, Cupgrass, Woolly (woolly cupgrass; [6]): 0 | Cupgrass, Woolly plant response rating (woolly cupgrass; [4]): 70 | Plant response rating, Cupgrass, Woolly (woolly cupgrass; [7]): 0 | Plant response rating (0 = no effect, 100 = complete control), Kochia (kochia; 62 g ai/ha, preemergence): 30 | Plant response rating, Kochia (kochia; [2]): 85 | Plant response rating, Kochia (kochia; [3]): 100 | Kochia plant response rating (kochia; [5]): 10 | Plant response rating, Kochia (kochia; [8]): 10 | Plant response rating, Kochia (kochia; [6]): 10 | Kochia plant response rating (kochia; [4]): 100 | Plant response rating, Kochia (kochia; [7]): 0 | Plant response rating (0 = no effect, 100 = complete control), Lambsquarters (lambsquarters; 62 g ai/ha, preemergence): 85 | Plant response rating, Lambsquarters (lambsquarters; [2]): 85 | Plant response rating, Lambsquarters (lambsquarters; [3]): 100 | Lambsquarters plant response rating (lambsquarters; [5]): 0 | Plant response rating, Lambsquarters (lambsquarters; [6]): 0 | Lambsquarters plant response rating (lambsquarters; [4]): 100 | Plant response rating, Lambsquarters (lambsquarters; [7]): 0 | Plant response rating (0 = no effect, 100 = complete control), Soybean (soybean; 62 g ai/ha, preemergence): 0 | Plant response rating, Soybean (soybean; [2]): 0 | Plant response rating, Soybean (soybean; [3]): 0 | Soybean plant response rating (soybean; Postemergence, scale 0 to 100): 100 | Plant response rating, Soybean (soybean; [6]): 100 | Soybean plant response rating (soybean; [9]): 0 | Plant response rating, Soybean (soybean; [7]): 100 | Plant response rating (0 = no effect, 100 = complete control), Morningglory (morningglory; 62 g ai/ha, preemergence): 0 | Plant response rating, Morningglory (morningglory; [2]): 0 | Plant response rating, Morningglory (morningglory; [3]): 0 | Morningglory plant response rating (morningglory; Postemergence, scale 0 to 100): 10 | Plant response rating, Morningglory (morningglory; [6]): 0 | Morningglory plant response rating (morningglory; [9]): 0 | Plant response rating, Morningglory (morningglory; [7]): 0 | Plant response rating (0 = no effect, 100 = complete control), Goosegrass (goosegrass; 62 g ai/ha, preemergence): 40 | Plant response rating, Goosegrass (goosegrass; [2]): 80 | Plant response rating, Goosegrass (goosegrass; [3]): 100 | Plant response rating, Goosegrass (goosegrass; [8]): 30 | Plant response rating, Goosegrass (goosegrass; [6]): 90 | Goosegrass plant response rating (goosegrass; [4]): 100 | Plant response rating, Goosegrass (goosegrass; [7]): 30

Cc1nn(C(C)(C)C)nc1C(=O)Nc1cccc(C(=O)N2CC=CC2)c1 [Compound 393]
Sedge, Umbrella plant response rating ([1]; 62 g ai/ha, scale 0 to 100): 70 | Sedge, Umbrella plant response rating [1, 10]: 75 | Sedge, Umbrella plant response rating [1, 11]: 80 | Plant response rating, Sedge, Umbrella [1, 12]: 85 | Plant response rating, Nutsedge, Yellow (yellow nutsedge; [13]): 50 | Barnyardgrass plant response rating (barnyardgrass; 62 g ai/ha, scale 0 to 100 (0 no effect, 100 complete control)): 45 | Barnyardgrass plant response rating (barnyardgrass; [10]): 65 | Barnyardgrass plant response rating (barnyardgrass; [11]): 75 | Plant response rating, Barnyardgrass (barnyardgrass; [12]): 95 | Plant response rating, Pigweed (pigweed; [14]): 90 | Plant response rating (0 = no effect, 100 = complete control), Pigweed (pigweed; 125 g ai/ha, preemergence): 100 | Plant response rating, Pigweed (pigweed; [13]): 100 | Plant response rating, Pigweed (pigweed; [15]): 100 | Plant response rating, Corn (corn; [14]): 55 | Plant response rating, Corn (corn; [13]): 75 | Plant response rating, Corn (corn; [15]): 100 | Plant response rating, Cupgrass, Woolly (woolly cupgrass; [14]): 30 | Plant response rating (0 = no effect, 100 = complete control), Cupgrass, Woolly (woolly cupgrass; 125 g ai/ha, preemergence): 70 | Plant response rating, Cupgrass, Woolly (woolly cupgrass; [13]): 90 | Plant response rating, Cupgrass, Woolly (woolly cupgrass; [15]): 100 | Plant response rating, Kochia (kochia; [14]): 0 | Plant response rating (0 = no effect, 100 = complete control), Kochia (kochia; 125 g ai/ha, preemergence): 100 | Plant response rating, Kochia (kochia; [13]): 100 | Plant response rating, Kochia (kochia; [15]): 100 | Plant response rating, Lambsquarters (lambsquarters; [14]): 100 | Plant response rating (0 = no effect, 100 = complete control), Lambsquarters (lambsquarters; 125 g ai/ha, preemergence): 100 | Plant response rating, Lambsquarters (lambsquarters; [13]): 100 | Plant response rating, Lambsquarters (lambsquarters; [15]): 100 | Plant response rating, Morningglory (morningglory; [14]): 60 | Plant response rating, Goosegrass (goosegrass; [14]): 85 | Plant response rating (0 = no effect, 100 = complete control), Goosegrass (goosegrass; 125 g ai/ha, preemergence): 100 | Plant response rating, Goosegrass (goosegrass; [13]): 100 | Plant response rating, Goosegrass (goosegrass; [15]): 100
